This passage reports % of inhibition, % of control and % binding results from ChEMBL document CHEMBL5465560, “Selectivity Literature for EUbOPEN Chemogenomic Library” (2024).

In assay [1] the target is Vascular endothelial growth factor receptor 2 (Homo sapiens, UniProt P35968). The experiment in a line: Selectivity interaction (Upstate Kinase Profiler service (Millipore)) EUB0000056c KDR. To be noted: at 1 µM.
Assay [2] concerns the target Calcium/calmodulin-dependent protein kinase type 1 (Homo sapiens) (UniProt Q14012). The assay is described as follows: Selectivity interaction (Upstate Kinase Profiler service (Millipore)) EUB0000056c CAMK1. To be noted: at 1 µM.
In assay [3] the target is T1, Serine/threonine-protein kinase PLK4 (Homo sapiens) (UniProt O00444).
T1 sequence (whole entry): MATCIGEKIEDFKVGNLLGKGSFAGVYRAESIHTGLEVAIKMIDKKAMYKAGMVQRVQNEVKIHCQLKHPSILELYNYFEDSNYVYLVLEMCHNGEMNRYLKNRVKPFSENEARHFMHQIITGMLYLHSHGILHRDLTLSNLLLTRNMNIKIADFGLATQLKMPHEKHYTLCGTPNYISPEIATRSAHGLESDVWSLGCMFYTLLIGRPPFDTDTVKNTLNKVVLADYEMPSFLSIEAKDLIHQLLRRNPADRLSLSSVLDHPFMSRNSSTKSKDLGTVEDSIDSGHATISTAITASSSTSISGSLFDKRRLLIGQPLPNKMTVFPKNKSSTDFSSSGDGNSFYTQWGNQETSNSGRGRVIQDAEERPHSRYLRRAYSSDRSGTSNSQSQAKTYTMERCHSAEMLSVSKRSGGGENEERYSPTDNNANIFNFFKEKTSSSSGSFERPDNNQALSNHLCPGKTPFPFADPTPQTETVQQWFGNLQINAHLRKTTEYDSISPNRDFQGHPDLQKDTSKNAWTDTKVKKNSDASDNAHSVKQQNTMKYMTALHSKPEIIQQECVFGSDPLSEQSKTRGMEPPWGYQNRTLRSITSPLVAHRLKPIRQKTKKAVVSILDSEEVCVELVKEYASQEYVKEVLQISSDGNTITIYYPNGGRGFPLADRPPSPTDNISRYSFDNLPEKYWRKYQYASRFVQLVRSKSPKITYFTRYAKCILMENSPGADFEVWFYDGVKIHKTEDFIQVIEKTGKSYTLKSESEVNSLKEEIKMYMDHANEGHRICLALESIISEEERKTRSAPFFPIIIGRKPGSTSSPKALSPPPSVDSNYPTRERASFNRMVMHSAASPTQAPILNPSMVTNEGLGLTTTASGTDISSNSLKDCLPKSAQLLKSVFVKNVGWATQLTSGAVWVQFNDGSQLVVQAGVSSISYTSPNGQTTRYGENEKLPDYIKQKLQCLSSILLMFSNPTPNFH
The assay is described as follows: Selectivity interaction (ProQinase) EUB0000171b PLK4.

Assay [4] concerns the target T2, Serine/threonine-protein kinase Sgk2 (Homo sapiens) (UniProt Q9HBY8).
T2 sequence (whole entry): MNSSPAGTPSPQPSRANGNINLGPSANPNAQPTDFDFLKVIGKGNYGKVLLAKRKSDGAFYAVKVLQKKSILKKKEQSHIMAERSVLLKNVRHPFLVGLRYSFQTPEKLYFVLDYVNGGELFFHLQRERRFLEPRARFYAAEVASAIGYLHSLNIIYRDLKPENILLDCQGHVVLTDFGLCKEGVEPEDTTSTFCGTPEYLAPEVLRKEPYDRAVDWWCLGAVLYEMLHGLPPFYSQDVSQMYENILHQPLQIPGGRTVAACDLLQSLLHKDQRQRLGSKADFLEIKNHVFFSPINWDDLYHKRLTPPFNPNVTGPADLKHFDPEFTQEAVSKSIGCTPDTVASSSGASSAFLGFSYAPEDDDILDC
The experiment in a line: Selectivity interaction (Ambit KINOMEscan and KiNATiv profiling in Jurkat cells) EUB0000090b SGK2. The settings on record: at 1 µM. It counts as cell-based.

Assay [5] is described as follows: Selectivity interaction (KinomeScan (DiscoverX)) EUB0000695a PKNB. To be noted: at 100 nM.
The target of assay [6] is T3, Tyrosine-protein kinase ZAP-70 (Homo sapiens) (UniProt P43403).
T3 sequence (whole entry): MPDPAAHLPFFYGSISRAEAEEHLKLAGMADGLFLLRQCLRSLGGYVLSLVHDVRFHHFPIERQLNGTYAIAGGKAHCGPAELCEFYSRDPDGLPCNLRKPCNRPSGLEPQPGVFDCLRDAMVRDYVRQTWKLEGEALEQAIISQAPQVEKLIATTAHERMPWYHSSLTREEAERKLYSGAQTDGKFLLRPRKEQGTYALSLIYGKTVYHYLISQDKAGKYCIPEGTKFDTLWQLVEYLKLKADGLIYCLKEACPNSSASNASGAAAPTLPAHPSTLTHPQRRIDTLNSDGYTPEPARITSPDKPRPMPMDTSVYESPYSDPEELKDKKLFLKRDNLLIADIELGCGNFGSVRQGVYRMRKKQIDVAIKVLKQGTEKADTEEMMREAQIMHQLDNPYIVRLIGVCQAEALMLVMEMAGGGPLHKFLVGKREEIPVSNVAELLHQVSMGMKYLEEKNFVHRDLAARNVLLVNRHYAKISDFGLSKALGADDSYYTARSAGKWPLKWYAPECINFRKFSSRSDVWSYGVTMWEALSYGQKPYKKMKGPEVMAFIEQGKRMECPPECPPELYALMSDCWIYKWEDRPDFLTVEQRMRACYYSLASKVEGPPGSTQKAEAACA
The assay is described as follows: Selectivity interaction (SelectScreen profiling (Invitrogen)) EUB0000607a ZAP70. The settings on record: at 2 µM.

Assay [7] has as its target Cyclin-dependent kinase 5 (Homo sapiens, UniProt Q00535). The assay is described as follows: Selectivity interaction (KinomeScan (DiscoverX)) EUB0000229b CDK5. To be noted: at 10 µM.

Sequence of Vascular endothelial growth factor receptor 2 (P35968 whole entry): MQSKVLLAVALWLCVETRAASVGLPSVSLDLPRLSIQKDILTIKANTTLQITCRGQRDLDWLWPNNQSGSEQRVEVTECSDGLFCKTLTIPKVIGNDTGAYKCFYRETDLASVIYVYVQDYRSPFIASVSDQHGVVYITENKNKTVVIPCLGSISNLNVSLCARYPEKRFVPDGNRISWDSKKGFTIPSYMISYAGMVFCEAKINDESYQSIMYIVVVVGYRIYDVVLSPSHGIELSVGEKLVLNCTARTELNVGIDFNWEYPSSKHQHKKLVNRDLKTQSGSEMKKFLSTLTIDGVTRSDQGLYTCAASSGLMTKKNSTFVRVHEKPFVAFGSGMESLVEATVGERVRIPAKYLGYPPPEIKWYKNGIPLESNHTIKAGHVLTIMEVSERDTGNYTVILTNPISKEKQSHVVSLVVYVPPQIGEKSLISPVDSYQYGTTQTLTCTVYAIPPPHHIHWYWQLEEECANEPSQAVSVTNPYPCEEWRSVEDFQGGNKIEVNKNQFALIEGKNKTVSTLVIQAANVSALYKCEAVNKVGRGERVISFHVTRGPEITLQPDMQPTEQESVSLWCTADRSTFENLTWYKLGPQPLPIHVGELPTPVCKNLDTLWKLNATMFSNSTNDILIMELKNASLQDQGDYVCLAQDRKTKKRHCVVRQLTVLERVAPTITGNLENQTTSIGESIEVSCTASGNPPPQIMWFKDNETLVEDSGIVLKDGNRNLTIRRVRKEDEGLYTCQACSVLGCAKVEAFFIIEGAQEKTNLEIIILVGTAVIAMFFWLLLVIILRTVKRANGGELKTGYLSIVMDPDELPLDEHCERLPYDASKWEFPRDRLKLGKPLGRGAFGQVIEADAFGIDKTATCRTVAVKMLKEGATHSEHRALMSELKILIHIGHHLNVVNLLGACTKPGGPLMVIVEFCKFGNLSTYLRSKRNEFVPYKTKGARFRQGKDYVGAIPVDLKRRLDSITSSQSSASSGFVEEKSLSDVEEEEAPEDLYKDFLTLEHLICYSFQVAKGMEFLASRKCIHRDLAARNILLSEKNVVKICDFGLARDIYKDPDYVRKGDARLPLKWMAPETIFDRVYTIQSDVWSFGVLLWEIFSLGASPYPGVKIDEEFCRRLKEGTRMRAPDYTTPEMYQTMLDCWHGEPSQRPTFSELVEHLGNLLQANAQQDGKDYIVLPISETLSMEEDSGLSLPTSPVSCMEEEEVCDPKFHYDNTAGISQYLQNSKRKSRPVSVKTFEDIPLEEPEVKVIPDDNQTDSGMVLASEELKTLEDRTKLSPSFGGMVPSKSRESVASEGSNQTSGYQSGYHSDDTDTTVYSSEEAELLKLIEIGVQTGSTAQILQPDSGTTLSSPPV
Sequence of Cyclin-dependent kinase 5 (Q00535 whole entry, looked up): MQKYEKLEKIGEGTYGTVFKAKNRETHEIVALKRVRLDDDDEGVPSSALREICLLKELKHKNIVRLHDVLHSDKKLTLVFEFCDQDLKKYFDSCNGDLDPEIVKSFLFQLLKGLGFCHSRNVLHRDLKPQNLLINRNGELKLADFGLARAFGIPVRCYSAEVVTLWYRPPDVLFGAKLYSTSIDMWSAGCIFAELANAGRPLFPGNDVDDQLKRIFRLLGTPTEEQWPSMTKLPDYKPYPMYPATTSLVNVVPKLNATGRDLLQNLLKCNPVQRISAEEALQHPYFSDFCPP
Sequence of Calcium/calmodulin-dependent protein kinase type 1 (Homo sapiens) (Q14012 whole entry, looked up): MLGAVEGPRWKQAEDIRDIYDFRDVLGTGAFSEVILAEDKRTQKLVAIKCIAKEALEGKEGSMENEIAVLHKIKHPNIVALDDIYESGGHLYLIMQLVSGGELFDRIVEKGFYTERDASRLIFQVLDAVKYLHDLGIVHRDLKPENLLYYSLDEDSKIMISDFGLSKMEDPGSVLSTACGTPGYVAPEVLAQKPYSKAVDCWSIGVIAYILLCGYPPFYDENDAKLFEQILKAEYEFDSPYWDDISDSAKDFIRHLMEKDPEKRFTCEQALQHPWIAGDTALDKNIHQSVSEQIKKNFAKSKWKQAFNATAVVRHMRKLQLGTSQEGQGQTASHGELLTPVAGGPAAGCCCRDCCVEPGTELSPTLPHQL

On to `Cc1ccc(-c2ccc3c(ccc4sc5c(c43)NC[C@@H](C)NC5=O)n2)cn1`, for which the % of inhibition in assay [1] was determined as 21%; in assay [2], 2%.

As to `C=CC(=O)Nc1cccc(C(=O)Nc2ccc(Nc3cc(-c4[nH]c(SC)nc4C)ccn3)cc2)c1`, the values for the % of control in assay [3] (at 1 µM) and in assay [3] (at 5 µM) were 77% and 57%, respectively.

In turn, `CN(C)C/C=C/C(=O)Nc1ccc(C(=O)N2CCCC(Nc3ncc(Cl)c(-c4c[nH]c5ccccc45)n3)C2)cc1` (stereo not drawn) returned a % of control in assay [4] of 100%.

On to `Cc1cc(F)c(C(=O)Nc2cccc(-c3nncn3C(C)C)n2)cc1-n1cnc(C2CC2)c1`, for which the % of control in assay [5] was 100%.

In the case of `CNC(=O)Nc1ccc(-c2nc(N3CC4CCC(C3)O4)c3cnn(C4CCC5(CC4)OCCO5)c3n2)cc1`, the % of inhibition in assay [6] is 7%.

In turn, `COc1cc(N(C)c2ccnc3ccc(C(F)(F)F)cc23)cc(OC)c1OC` yielded a % binding in assay [7] of 97%.
